pIC50, pKi: −log10 of the molar value.
How the values were obtained:
[1] = target: T1, NAD kinase (Homo sapiens, UniProt O95544); experiment: Inhibition of human NADK expressed in Escherichia coli BL21(DE3) assessed as reduction in NADP production using NAD as substrate by glucose-6-phosphate dehydrogenase coupled enzyme based spectrophotometric method
T1 sequence (O95544 whole entry): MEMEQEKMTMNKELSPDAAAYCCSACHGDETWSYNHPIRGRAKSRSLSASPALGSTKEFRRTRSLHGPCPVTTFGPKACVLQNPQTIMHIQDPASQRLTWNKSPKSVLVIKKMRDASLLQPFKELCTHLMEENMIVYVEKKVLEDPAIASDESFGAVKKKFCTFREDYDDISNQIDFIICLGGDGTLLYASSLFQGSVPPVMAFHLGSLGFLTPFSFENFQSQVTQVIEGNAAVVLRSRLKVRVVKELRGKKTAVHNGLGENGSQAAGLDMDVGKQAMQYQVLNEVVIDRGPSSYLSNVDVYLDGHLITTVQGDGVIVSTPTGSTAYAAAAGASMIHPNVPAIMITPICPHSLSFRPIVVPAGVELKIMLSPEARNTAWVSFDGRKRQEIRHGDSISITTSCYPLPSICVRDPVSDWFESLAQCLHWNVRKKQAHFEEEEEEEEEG

[2] = Competitive inhibition of Listeria monocytogenes C-terminal His6-tagged NADK1 expressed in Escherichia coli BL21(DE3) assessed as reduction in NADP production using varying levels of NAD as substrate by glucose-6-phosphate dehydrogenase coupled enzyme based spectrophotometric method
[3] = Cytotoxicity against human MRC5 cells up to 1 x 10^-4M; assay type: toxicity, cell-based
[4] = system: Listeria monocytogenes; experiment: Inhibition of Listeria monocytogenes C-terminal His6-tagged NADK1 expressed in Escherichia coli BL21(DE3) assessed as reduction in NADP production at 300 uM using NAD as substrate by glucose-6-phosphate dehydrogenase coupled enzyme based spectrophotometric method relative to control relative to control
[5] = target: T2, NAD kinase (Staphylococcus aureus (strain COL), UniProt Q5HH78); experiment: Inhibition of Staphylococcus aureus COL NADK expressed in Escherichia coli BL21(DE3) assessed as reduction in NADP production using NAD as substrate by glucose-6-phosphate dehydrogenase coupled enzyme based spectrophotometric method; set-up: species or system Staphylococcus aureus subsp. aureus COL
T2 sequence (Q5HH78 whole entry): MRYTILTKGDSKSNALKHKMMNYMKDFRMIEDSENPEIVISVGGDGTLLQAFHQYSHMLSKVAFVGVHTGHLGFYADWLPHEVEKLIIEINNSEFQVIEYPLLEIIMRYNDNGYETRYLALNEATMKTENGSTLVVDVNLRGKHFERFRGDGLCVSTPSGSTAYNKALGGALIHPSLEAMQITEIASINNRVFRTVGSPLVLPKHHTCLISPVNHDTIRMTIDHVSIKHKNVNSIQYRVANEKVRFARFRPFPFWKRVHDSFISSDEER

[6] = target: T3, NAD kinase (Homo sapiens) (UniProt O95544); experiment: Inhibition of human NADK expressed in Escherichia coli BL21(DE3) assessed as reduction in NADP production at 400 uM using NAD as substrate by glucose-6-phosphate dehydrogenase coupled enzyme based spectrophotometric method relative to control
T3 sequence (whole entry): T1 sequence (O95544 whole entry)

[7] = target: T3, NAD kinase (Homo sapiens); experiment: Inhibition of human NADK expressed in Escherichia coli BL21(DE3) assessed as reduction in NADP production at 250 uM using NAD as substrate by glucose-6-phosphate dehydrogenase coupled enzyme based spectrophotometric method relative to control
[8] = target: T3, NAD kinase (Homo sapiens); experiment: Inhibition of human NADK expressed in Escherichia coli BL21(DE3) assessed as reduction in NADP production at 500 uM using NAD as substrate by glucose-6-phosphate dehydrogenase coupled enzyme based spectrophotometric method relative to control
[9] = Ratio of Ki for human NADK harboring Listeria monocytogenes NADK1 segment 1 expressed in Escherichia coli BL21(DE3) to Ki for human NADK expressed in Escherichia coli BL21(DE3)

Structure (SMILES)	pKi [1]	pKi [2]	Activity [3]	also measured
COc1ccc2[nH]cc(CCNC(=O)CSc3nc4c(N)ncnc4n3[C@@H]3O[C@H](CN=[N+]=[N-])[C@@H](O)[C@H]3O)c2c1	3.80	5.30	Non-Toxic	
NC[C@H]1O[C@@H](n2c(SCC(=O)NCCc3ccc(Br)cc3)nc3c(N)ncnc32)[C@H](O)[C@@H]1O	3.89	4.26	Non-Toxic	
Nc1ncnc2c1nc(SCC(=O)NCCc1ccc(Br)cc1)n2[C@@H]1O[C@H](CO)[C@@H](O)[C@H]1O	3.60	4.52	Non-Toxic	
[N-]=[N+]=NC[C@H]1O[C@@H](n2c(SCC(=O)NCCc3nc4ccccc4[nH]3)nc3c(N)ncnc32)[C@H](O)[C@@H]1O	3.28	4.64	Non-Toxic	
[N-]=[N+]=NC[C@H]1O[C@@H](n2c(SCC(=O)NCCc3ccc4ccccc4c3)nc3c(N)ncnc32)[C@H](O)[C@@H]1O	3.85	5.30	Non-Toxic	
Nc1ncnc2c1nc(SCC(=O)NCCc1ccc(C(F)(F)F)cc1)n2[C@@H]1O[C@H](CO)[C@@H](O)[C@H]1O		5.00	Non-Toxic	
CN(C)S(=O)(=O)NC[C@H]1O[C@@H](n2c(SCC(=O)NCCc3ccc(Cl)c(Cl)c3)nc3c(N)ncnc32)[C@H](O)[C@@H]1O	3.80	5.46	Non-Toxic	
Cn1cc(CCNC(=O)CSc2nc3c(N)ncnc3n2[C@@H]2O[C@H](CN=[N+]=[N-])[C@@H](O)[C@H]2O)c2ccccc21	3.46	6.40	Non-Toxic	
[N-]=[N+]=NC[C@H]1O[C@@H](n2c(SCC(=O)NCCc3ccc(Cl)cc3)nc3c(N)ncnc32)[C@H](O)[C@@H]1O	3.68	6.30	Non-Toxic	
[N-]=[N+]=NC[C@H]1O[C@@H](n2c(SCC(=O)NCc3ccnc(Cl)c3)nc3c(N)ncnc32)[C@H](O)[C@@H]1O	3.66		Non-Toxic	inhibition [4]: 20%; pIC50 [5]: < 3.40
[N-]=[N+]=NC[C@H]1O[C@@H](n2c(SCC(=O)NCCc3ccc(Br)cc3)nc3c(N)ncnc32)[C@H](O)[C@@H]1O		6.30	Non-Toxic	
Nc1ncnc2c1nc(SCC(=O)NCCc1ccccc1)n2[C@@H]1O[C@H](CO)[C@@H](O)[C@H]1O		3.85	Non-Toxic	inhibition [6]: 10%; pIC50 [5]: < 3.40
[N-]=[N+]=NC[C@H]1O[C@@H](n2c(SCC(=O)NCCc3cccc(C(F)(F)F)c3)nc3c(N)ncnc32)[C@H](O)[C@@H]1O	3.52	5.19	Non-Toxic	
[N-]=[N+]=NC[C@H]1O[C@@H](n2c(SCC(=O)NCCc3c[nH]c4ccccc34)nc3c(N)ncnc32)[C@H](O)[C@@H]1O	3.85	6.30	Non-Toxic	
[N-]=[N+]=NC[C@H]1O[C@@H](n2c(SCC(=O)NCCCc3ccccc3)nc3c(N)ncnc32)[C@H](O)[C@@H]1O	3.82	4.26	Non-Toxic	pIC50 [5]: < 3.40
[N-]=[N+]=NC[C@H]1O[C@@H](n2c(SCC(=O)NCCc3c[nH]c4ccc(Cl)cc34)nc3c(N)ncnc32)[C@H](O)[C@@H]1O		6.52	Non-Toxic	
[N-]=[N+]=NC[C@H]1O[C@@H](n2c(SCC(=O)NCCc3ccc(C(F)(F)F)cc3)nc3c(N)ncnc32)[C@H](O)[C@@H]1O	3.64	5.12	Non-Toxic	

Structure (SMILES)	pKi [1]	pKi [2]	Activity [3]	also measured
C#Cc1cccc(CCNC(=O)CSc2nc3c(N)ncnc3n2[C@@H]2O[C@H](CN=[N+]=[N-])[C@@H](O)[C@H]2O)c1		5.22	Non-Toxic	inhibition [7]: 20%
COc1ccc2[nH]cc(CCNC(=O)CSc3nc4c(N)ncnc4n3[C@@H]3O[C@H](CO)[C@@H](O)[C@H]3O)c2c1		4.40	Non-Toxic	
NC[C@H]1O[C@@H](n2c(SCC(=O)NCCc3ccc(Cl)c(Cl)c3)nc3c(N)ncnc32)[C@H](O)[C@@H]1O	3.89	5.70	Non-Toxic	
Nc1ncnc2c1nc(SCC(=O)NCCc1c[nH]c3ccc(Cl)cc13)n2[C@@H]1O[C@H](CO)[C@@H](O)[C@H]1O	3.11	6.60	Non-Toxic	
Nc1ncnc2c1nc(SCC(=O)NCCc1ccc(Cl)cc1)n2[C@@H]1O[C@H](CO)[C@@H](O)[C@H]1O		4.40	Non-Toxic	inhibition [8]: 20%
Nc1ncnc2c1nc(SCCC(=O)NCCc1cccc(Br)c1)n2[C@@H]1O[C@H](CO)[C@@H](O)[C@H]1O		4.30	Non-Toxic	pIC50 [5]: < 3.40
Nc1ncnc2c1nc(SCC(=O)NCCc1cccc(Cl)c1)n2[C@@H]1O[C@H](CO)[C@@H](O)[C@H]1O	3.70	4.52	Non-Toxic	
[N-]=[N+]=NC[C@H]1O[C@@H](n2c(SCC(=O)NCc3cccc(Br)c3)nc3c(N)ncnc32)[C@H](O)[C@@H]1O		4.60	Non-Toxic	pIC50 [5]: < 3.40
Nc1ncnc2c1nc(SCC(=O)NCCc1cccc(Br)c1)n2[C@@H]1O[C@H](CO)[C@@H](O)[C@H]1O	3.47	5.70	Non-Toxic	pIC50 [5]: < 3.40
Nc1ncnc2c1nc(SCC(=O)NCCc1c[nH]c3ccccc13)n2[C@@H]1O[C@H](CO)[C@@H](O)[C@H]1O		5.70	Non-Toxic	inhibition [8]: 20%
[N-]=[N+]=NC[C@H]1O[C@@H](n2c(SCC(=O)NCCc3ccccc3)nc3c(N)ncnc32)[C@H](O)[C@@H]1O	3.46	5.30	Non-Toxic	Ratio Ki [9]: 3; pIC50 [5]: < 3.40
[N-]=[N+]=NC[C@H]1O[C@@H](n2c(SCC(=O)NCCc3cccc(Cl)c3)nc3c(N)ncnc32)[C@H](O)[C@@H]1O		6.12	Non-Toxic	
Nc1ncnc2c1nc(SCC(=O)NCCc1ccc(Cl)c(Cl)c1)n2[C@@H]1O[C@H](CO)[C@@H](O)[C@H]1O	3.37	4.66	Non-Toxic	
[N-]=[N+]=NC[C@H]1O[C@@H](n2c(SCC(=O)NCCc3ccc(Cl)c(Cl)c3)nc3c(N)ncnc32)[C@H](O)[C@@H]1O	3.85	7.00	Non-Toxic	
C[C@H]1O[C@@H](n2c(SCC(=O)NCCc3ccc(Cl)c(Cl)c3)nc3c(N)ncnc32)[C@H](O)[C@@H]1O	3.74	5.82	Non-Toxic	
C#CCNC(=O)CSc1nc2c(N)ncnc2n1[C@@H]1O[C@H](CN=[N+]=[N-])[C@@H](O)[C@H]1O	3.85	4.52	Non-Toxic	pIC50 [5]: < 3.40
CCNC(=O)NC[C@H]1O[C@@H](n2c(SCC(=O)NCCc3ccc(Cl)c(Cl)c3)nc3c(N)ncnc32)[C@H](O)[C@@H]1O		5.52	Non-Toxic	inhibition [7]: 10%

— ChEMBL document CHEMBL3875180, “8-Thioalkyl-adenosine derivatives inhibit Listeria monocytogenes NAD kinase through a novel binding mode” (Eur J Med Chem, 2016)
